Where two headings read alike, the source gives them in different places.
Legend:
[1] = tested on: A549 (human lung carcinoma) cells; experiment: Cell viability assay (CellTiter-Glo), A549; format: cell-based; conditions: 72 h
Procedure: (§1) MIA PaCa-2 (human pancreatic carcinoma; ATCC CRL-1420) or A549 (human lung carcinoma; ATCC CCL-185) cells were cultured in RPMI 1640 medium containing 10% fetal bovine serum and 1× penicillin/streptomycin/L-glutamine. Cells were seeded in 384-well plates at a density of 1.67E+04 cells/mL and incubated at 37° C., 5% CO2, overnight. Serially-diluted compound or DMSO was added to the cells, and plates were incubated at 37° C., 5% CO2 for 72 h. Cell viability was measured using a CellTiter-Glo® Luminescent Cell Viability Assay kit (Promega) according to the manufacturer's protocol. The luminescence signal of treated samples was normalized to DMSO control, and data were analyzed using a 4-parameter logistic model to calculate IC50 values.

[2] = biological target: GDP-bound KRAS protein (aa 1-169), containing both G12C and C118A amino acid substitutions (Homo sapiens, UniProt P01116, C118A/G12C); experiment: Coupled nucleotide exchange assay (SOS-mediated, AlphaScreen); format: biochemical
Chain of GDP-bound KRAS protein (aa 1-169), containing both G12C and C118A amino acid substitutions (P01116 1-169 isoform P01116-2 G12C/C118A): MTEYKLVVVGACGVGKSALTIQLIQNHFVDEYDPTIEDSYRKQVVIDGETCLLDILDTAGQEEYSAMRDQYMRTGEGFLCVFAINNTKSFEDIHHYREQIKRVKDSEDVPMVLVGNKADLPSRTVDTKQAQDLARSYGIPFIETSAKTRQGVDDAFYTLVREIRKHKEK
Procedure: Coupled Nucleotide Exchange Assay:
For all subsequent steps, DTT was added to the reaction buffer at a final concentration of 1 mM. […] The assay plates were then read on a plate reader measuring luminescence signal. Signal intensity of compound-containing wells were normalized to DMSO control, and data were analyzed using a 4-parameter logistic model to calculate IC50 values.

[3] = tested on: MIA PaCa-2 (human pancreatic carcinoma) cells; experiment: Cell viability assay (CellTiter-Glo), MIA PaCa-2; format: cell-based; conditions: 72 h
Procedure: as §1

[4] = 2 h compound pre-incubation, read-out: Avg 2 h Coupled exchange IC50

Structure (SMILES)	IC50 [1]	IC50 [2, 4]	IC50 [3]	IC50 ([2]; 20 h compound pre-incubation (values marked * in Table 6), read-out: Avg 20 h Coupled exchange IC50)
C=CC(=O)N1CC2(CCN(c3nc(N[C@H](CC(=O)NC)CC(C)C)c4ccccc4n3)C2)C1 [Example 1-5, (3S)-N,5-dimethyl-3-((2-(2-(2-propenoyl)-2,6-diazaspiro[3.4]octan-6-yl)-4-quinazolinyl)amino)hexanamide]	18.4 µM	1.1 µM	1.23 µM	
C=CC(=O)N1CC2(CCN(c3nc4c(c(N[C@H](Cc5cc(C)no5)CC(C)C)n3)CCC(C)(C)C4)C2)C1 [Example 1-49, 1-(6-(7,7-dimethyl-4-(((2S)-4-methyl-1-(3-methyl-1,2-oxazol-5-yl)-2-pentanyl)amino)-5,6,7,8-tetrahydro-2-quinazolinyl)-2,6-diazaspiro[3.4]octan-2-yl)-2-propen-1-one]	11.6 µM	0.093 µM	0.218 µM	
C=CC(=O)N1CC2(C1)CN(c1nc3c(c(N[C@H](CC(=O)NC)CC(C)C)n1)CCC(C)C3)CC2(F)F (stereo partly drawn) [Example 1-2, (3S)-3-((2-(8,8-difluoro-2-(2-propenoyl)-2,6-diazaspiro[3.4]octan-6-yl)-7-methyl-5,6,7,8-tetrahydro-4-quinazolinyl)amino)-N,5-dimethylhexanamide]	15.1 µM	0.019 µM	0.047 µM	
C=CC(=O)N1CC2(C1)CN(c1nc(N[C@H](CC(=O)NC)CC(C)C)c3ccccc3n1)CC2(F)F [Example 1-18, (3S)-3-((2-(8,8-difluoro-2-(2-propenoyl)-2,6-diazaspiro[3.4]octan-6-yl)-4-quinazolinyl)amino)-N,5-dimethylhexanamide]	6.25 µM	0.334 µM	0.971 µM	
C=CC(=O)N1CC2(CCN(c3nc4c(c(N[C@H](Cc5ncco5)CC(C)C)n3)CCCC4)C2)C1 [Example 1-57, 1-(6-(4-(((2S)-4-methyl-1-(1,3-oxazol-2-yl)-2-pentanyl)amino)-5,6,7,8-tetrahydro-2-quinazolinyl)-2,6-diazaspiro[3.4]octan-2-yl)-2-propen-1-one]	17.9 µM	2.1 µM	2.49 µM	
C=CC(=O)N1CC2(CCN(c3nc4c(c(N[C@H](Cc5ncc[nH]5)CC(C)C)n3)CCCC4)C2)C1 [Example 1-23, 1-(6-(4-(((2S)-1-(1H-imidazol-2-yl)-4-methyl-2-pentanyl)amino)-5,6,7,8-tetrahydro-2-quinazolinyl)-2,6-diazaspiro[3.4]octan-2-yl)-2-propen-1-one]	> 5 µM	1.16 µM	2.83 µM	
C=CC(=O)N1CC2(CCN(c3nc(N[C@H](CC(=O)NC)CC(C)C)c4ccc(Cl)cc4n3)C2)C1 [Example 1-30, (3S)-3-((7-chloro-2-(2-(2-propenoyl)-2,6-diazaspiro[3.4]octan-6-yl)-4-quinazolinyl)amino)-N,5-dimethylhexanamide]	14.6 µM	0.265 µM	0.112 µM	
C=CC(=O)N1CC2(CCN(c3nc4c(c(N[C@H](Cc5ncc[nH]5)CC(C)C)n3)CCC(C)(C)C4)C2)C1 [Example 1-54, 1-(6-(4-(((2S)-1-(1H-imidazol-2-yl)-4-methyl-2-pentanyl)amino)-7,7-dimethyl-5,6,7,8-tetrahydro-2-quinazolinyl)-2,6-diazaspiro[3.4]octan-2-yl)-2-propen-1-one]	> 5 µM	0.049 µM	1.32 µM	
C=CC(=O)N1CC2(CCN(c3nc4c(c(N[C@H](Cc5cc(C)on5)CC(C)C)n3)CCC(C)(C)C4)C2)C1 [Example 1-53, 1-(6-(7,7-dimethyl-4-(((2S)-4-methyl-1-(5-methyl-1,2-oxazol-3-yl)-2-pentanyl)amino)-5,6,7,8-tetrahydro-2-quinazolinyl)-2,6-diazaspiro[3.4]octan-2-yl)-2-propen-1-one]	> 5 µM	0.024 µM	0.994 µM	
C=CC(=O)N1CC2(CCN(c3nc4c(c(N[C@H](CC(=O)NC)Cc5ccccc5)n3)CCC(C)(C)C4)C2)C1 [Example 1-50, (3S)-3-((7,7-dimethyl-2-(2-(2-propenoyl)-2,6-diazaspiro[3.4]octan-6-yl)-5,6,7,8-tetrahydro-4-quinazolinyl)amino)-N-methyl-4-phenylbutanamide]	> 25 µM	1.31 µM	0.587 µM	
C=CC(=O)N1CC2(CCN(c3nc(N[C@H](CC(=O)NC)CC(C)C)c4c(n3)[C@H](C)CCC4)C2)C1 [Example 1-8, (3S)-N,5-dimethyl-3-(((8R)-8-methyl-2-(2-(2-propenoyl)-2,6-diazaspiro[3.4]octan-6-yl)-5,6,7,8-tetrahydro-4-quinazolinyl)amino)hexanamide]	> 5 µM	1.1 µM	1 µM	
C=CC(=O)N1CC2(CCN(c3nc4c(c(N[C@H](CC(=O)NC)CC(C)C)n3)CCCC4)C2)C1 [Example 1-1, (S)-3-((2-(2-acryloyl-2,6-diazaspiro[3.4]octan-6-yl)-5,6,7,8-tetrahydroquinazolin-4-yl)amino)-N,5-dimethylhexanamide]	> 25 µM	0.702 µM	0.887 µM	
C=CC(=O)N1CC2(CCN(c3nc(N[C@H](CC(=O)NC)CC(C)C)c4ccc(C5CC5)cc4n3)C2)C1 [Example 1-40, (3S)-3-((7-cyclopropyl-2-(2-(2-propenoyl)-2,6-diazaspiro[3.4]octan-6-yl)-4-quinazolinyl)amino)-N,5-dimethylhexanamide]	19 µM	0.084 µM	0.169 µM	
C=CC(=O)N1CC2(CCN(c3nc(N[C@H](CC(=O)NC)CC(C)C)c4ccc(C)cc4n3)C2)C1 [Example 1-25, (3S)-N,5-dimethyl-3-((7-methyl-2-(2-(2-propenoyl)-2,6-diazaspiro[3.4]octan-6-yl)-4-quinazolinyl)amino)hexanamide]	> 5 µM	0.339 µM	0.921 µM	
C=CC(=O)N1CC2(CCN(c3nc4c(c(N[C@H](Cc5noc(C)n5)CC(C)C)n3)CCC(C)(C)C4)C2)C1 [Example 1-44, 1-(6-(7,7-dimethyl-4-(((2S)-4-methyl-1-(5-methyl-1,2,4-oxadiazol-3-yl)-2-pentanyl)amino)-5,6,7,8-tetrahydro-2-quinazolinyl)-2,6-diazaspiro[3.4]octan-2-yl)-2-propen-1-one]	21.9 µM	0.38 µM	0.316 µM	
C=CC(=O)N1CC2(CCN(c3nc4c(c(N[C@@H](CC(=O)NC)c5cccc(C#N)c5)n3)CCCC4)C2)C1 (single isomer, unassigned) [Example 1-21-1]	> 25 µM	9.085 µM	10.5 µM	
C=CC(=O)N1CC2(CCN(c3nc4c(c(N[C@@H](CC(C)C)Cn5cccn5)n3)CCC(C)(C)C4)C2)C1 [Example 1-46, 1-(6-(7,7-dimethyl-4-(((2S)-4-methyl-1-(1H-pyrazol-1-yl)-2-pentanyl)amino)-5,6,7,8-tetrahydro-2-quinazolinyl)-2,6-diazaspiro[3.4]octan-2-yl)-2-propen-1-one]	20.2 µM	0.162 µM	0.122 µM	
C=CC(=O)N1CC2(CCN(c3nc4c(c(N[C@H](CC5=NC(C)(C)C(=O)N5)CC(C)C)n3)CCCC4)C2)C1 [Example 1-12, 5,5-dimethyl-2-((2S)-4-methyl-2-((2-(2-(2-propenoyl)-2,6-diazaspiro[3.4]octan-6-yl)-5,6,7,8-tetrahydro-4-quinazolinyl)amino)pentyl)-3,5-dihydro-4H-imidazol-4-one]	> 25 µM	3.93 µM	10.5 µM	
C=CC(=O)N1CC2(CCN(c3nc(N[C@H](CC(=O)NC)CC(C)C)c4ncsc4n3)C2)C1 [Example 1-11, (3S)-N,5-dimethyl-3-((5-(2-(2-propenoyl)-2,6-diazaspiro[3.4]octan-6-yl)[1,3]thiazolo[5,4-d]pyrimidin-7-yl)amino)hexanamide]	> 5 µM		> 5 µM	0.395 µM
C=CC(=O)N1CC2(CCN(c3nc4c(c(N[C@@H](CC(C)C)C(=O)NC)n3)CCCC4)C2)C1 [Example 1-60, (S)-2-((2-(2-acryloyl-2,6-diazaspiro[3.4]octan-6-yl)-5,6,7,8-tetrahydroquinazolin-4-yl)amino)-N,4-dimethylpentanamide]	17.9 µM	8.28 µM	7.06 µM	
C=CC(=O)N1CC2(CCN(c3nc4c(c(N[C@@H](CC(C)C)Cn5ccnn5)n3)CCC(C)(C)C4)C2)C1 [Example 1-47, 1-(6-(7,7-dimethyl-4-(((2S)-4-methyl-1-(1H-1,2,3-triazol-1-yl)-2-pentanyl)amino)-5,6,7,8-tetrahydro-2H-quinazolinyl)-2,6-diazaspiro[3.4]octan-2-yl)-2-propen-1-one]	14.1 µM		0.485 µM	
C=CC(=O)N1CC2(CCN(c3nc4c(c(N[C@H](CC(=O)NC)CC(C)C)n3)CCC(C)(C)C4)C2)C1 [Example 1-29, (3S)-3-((7,7-dimethyl-2-(2-(2-propenoyl)-2,6-diazaspiro[3.4]octan-6-yl)-5,6,7,8-tetrahydro-4-quinazolinyl)amino)-N,5-dimethylhexanamide]	> 25 µM		0.031 µM	

— patent US20230406860A1, “HETEROCYCLIC SPIRO COMPOUNDS AND METHODS OF USE” (AMGEN INC., priority 2020, published 2023)
